Assay results published in US6362166B1, “Antipicornaviral compounds and methods for their use and preparation” (Agouron Pharmaceuticals, Inc., priority 1996, dated 2002).
Read-outs that look alike come from different tables or passages of the source.

Tests used:
[1] = tested on: HRV-14; assay: Antirhinoviral HI-HeLa Cell Culture Assay (Cell Protection Assay, XTT dye reduction); type: cell-based, human rhinovirus (HRV) serotype-14
Method in brief: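 Protection measured via XTT dye reduction (450/650 nm) two days after compound treatment of HI-HeLa cells, mock-infected or infected with cDNA-derived HRV-14 at m.o.i. 0.13. CC50 divided by EC50 gives the therapeutic index.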

[2] = biological target: T1, Recombinant Rhinovirus 3C protease (RVP) serotype-14 (Human rhinovirus 14, UniProt P03303); assay: Inhibition of Rhinovirus Protease (fluorescence resonance energy transfer assay), serotype 14; type: biochemical, human rhinovirus (HRV); conditions: for kinact/KI: pH 7.6, read-out: kobs/I; for kobs/I: RVP serotype-14, progress curves in enzyme start experiments
T1 construct: Recombinant Rhinovirus 3C proteases from serotypes 14, 16, 2 or 89; made in house

[3] = Cytotoxicity in mock-infected HI-HeLa cells (antirhinoviral assay, XTT); type: cell-based; conditions: human; mock-infected HI-HeLa cells; two days; XTT; read-out: CC50
[4] = tested on: HI-HeLa cells; assay: as above; type: cell-based
[5] = Rhinovirus B, HRV14, 48 h, HI-HeLa cells infected with HRV-14, m.o.i. 0.13, two days, XTT, read-out: EC50
[6] = HI-HeLa cells infected with HRV-14, m.o.i. 0.13, two days, XTT, read-out: EC50
[7] = mock-infected HI-HeLa cells, two days, XTT, read-out: CC50

T1 sequence (P03303 1538-1719): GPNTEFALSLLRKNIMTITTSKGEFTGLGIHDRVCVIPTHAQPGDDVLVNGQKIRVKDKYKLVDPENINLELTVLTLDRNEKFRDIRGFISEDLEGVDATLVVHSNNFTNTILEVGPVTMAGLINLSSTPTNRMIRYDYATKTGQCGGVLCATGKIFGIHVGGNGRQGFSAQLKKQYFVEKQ

SMILES | EC50 [1, 5] [µM] | Ki [2] [µM] | CC50 at 2 days [3] [µM] | kinact/KI [2] [M⁻¹ s⁻¹] | EC50 ([1]; Rhinovirus B, HRV14, 48 h) [µM] | EC50 [1, 6] [µM] | kobs/I [2] | CC50 [4] [µM] | CC50 [4, 7] [µM]
CC(C)CC(NC(=O)OCc1ccccc1)C(=O)NC(Cc1ccccc1)C(=O)NC(C=Cc1ccccc1C#N)CCC(N)=O (stereo not shown) [Compound 145] | > 320 | 10 to 20 | > 320 | – | – | – | – | – | –
CC(=O)OCC=CC(CCC(N)=O)NC(=O)C(Cc1ccccc1)NC(=O)C(CC(C)C)NC(=O)OCc1ccccc1 (stereo not shown) [Compound 76] | > 320 | – | > 320 | – | – | – | – | – | –
CC(C)C[C@H](NC(=O)OCc1ccccc1)C(=O)N[C@@H](Cc1ccccc1)C(=O)N[C@H](/C=C/C(=O)N1CCc2cc(S(=O)(=O)N(C)C)ccc21)CCC(N)=O [Compound 88] | 8.8 | > 30 | > 160 | 8960 | – | – | – | – | –
CCOC(=O)/C=C/[C@H](CCC(=O)NC(c1ccccc1)(c1ccccc1)c1ccccc1)NC(=O)[C@H](Cc1ccccc1)NC(=O)[C@H](CC(C)C)NC(=O)OCc1ccccc1 [Compound 2, Ethyl-3-[CBZ-L-Leu-L-Phe-L-(Tr-Gln)]-E-Propenoate] | 100 | 6.6 | > 320 | – | – | – | – | – | –
CC(C)C[C@H](NC(=O)OCc1ccccc1)C(=O)N[C@@H](Cc1ccccc1)C(=O)N[C@H](/C=C/C(=O)OC(C)C)CCC(N)=O [Compound 17, Isopropyl-3-(CBZ-L-Leu-L-Phe-L-Gln)-E-Propenoate] | 1.8 | 1.25 | > 100 | 6100 | – | – | – | – | –
CCOC(=O)/C=C/[C@H](CCC(N)=O)NC(=O)[C@H](Cc1cnc[nH]1)NC(=O)[C@H](CC(C)C)NC(=O)OCc1ccccc1 [Compound 112] | – | 13 | > 320 | 6800 | 27 | – | – | – | –
CC(C)C[C@H](NC(=O)OCc1ccccc1)C(=O)N[C@@H](Cc1ccccc1)C(=O)N[C@H](/C=C/C(=O)N1CCc2cc([N+](=O)[O-])ccc21)CCC(N)=O [Compound 86] | 17 | 4 | > 320 | 12000 | – | – | – | – | –
CON=C/C=C/[C@H](CCC(N)=O)NC(=O)[C@H](Cc1ccccc1)NC(=O)[C@H](CC(C)C)NC(=O)OCc1ccccc1 [Compound 83] | 100 | 8 | > 320 | – | – | – | – | – | –
CC(C)C[C@H](NC(=O)OCc1ccccc1)C(=O)N[C@@H](Cc1ccccc1)C(=O)N[C@H](/C=C/c1nccn1C)CCC(N)=O [Compound 65] | 158 | 2.9 | > 320 | – | – | – | – | – | –
CC(C)C[C@H](NC(=O)OCc1ccccc1)C(=O)N[C@@H](Cc1ccccc1)C(=O)N[C@H](/C=C/C(=O)OC1CCCCC1)CCC(N)=O [Compound 25] | 3.1 | 5.5 | > 100 | 3700 | – | – | – | – | –
COc1cccc2[nH]c(C(=O)NC(Cc3ccc(F)cc3)C(=O)NC(/C=C/C(=O)O)CCC(N)=O)cc12 (stereo not shown) [Compound 45] | > 100 | – | > 100 | – | – | – | – | – | –
CC(C)C[C@H](NC(=O)OCc1ccccc1)C(=O)N[C@@H](Cc1ccccc1)C(=O)N[C@H](/C=C\CCl)CCC(N)=O [Compound 78] | 10 | 7 | 79.4 | – | – | – | – | – | –
CC(C)C[C@H](NC(=O)OCc1ccccc1)C(=O)N[C@@H](Cc1ccccc1)C(=O)N[C@H](/C=C/C(=O)N(C)O)CCC(N)=O [Compound 138] | > 41.7 | 20 | 41.7 | 1770 | – | – | – | – | –
CC(C)C[C@H](NC(=O)OCc1ccccc1)C(=O)N[C@@H](Cc1ccccc1)C(=O)N[C@H](/C=C/C(=O)N1CCc2cc(F)ccc21)CCC(N)=O [Compound 87] | 10.6 | 6 | > 320 | 5430 | – | – | – | – | –
CCOC(=O)/C=C/C(CCC(N)=O)NC(=O)C(Cc1ccccc1)NC(=O)C(CC(C)C)NC(=O)c1ccc2ccccc2c1 (stereo not shown) [Compound 44] | 1 | 12.6 | > 320 | 21000 | – | – | – | – | –
CCOC(=O)/C=C/[C@H](CCC(N)=O)NC(=O)[C@H](Cc1ccccc1)NC(=O)[C@H](CC(C)C)NC(=O)CSc1ccccn1 [Compound 118] | 17.8 | 39 | > 320 | 1450 | – | – | – | – | –

SMILES | EC50 [1, 5] [µM] | Ki [2] [µM] | CC50 at 2 days [3] [µM] | kinact/KI [2] [M⁻¹ s⁻¹] | EC50 ([1]; Rhinovirus B, HRV14, 48 h) [µM] | EC50 [1, 6] [µM] | kobs/I [2] | CC50 [4] [µM] | CC50 [4, 7] [µM]
CCOC(=O)/C=C/[C@H](COC(N)=O)NC(=O)[C@H](Cc1ccccc1)NC(=O)[C@H](CC(C)C)NC(=O)OCc1ccccc1 [Compound 56] | 1.6 | 15 | > 320 | 5620 | – | – | – | – | –
CC(C)C[C@H](NC(=O)OCc1ccccc1)C(=O)N[C@@H](Cc1ccccc1)C(=O)N[C@H](/C=C/C(=O)OCC(C)(C)C)CCC(N)=O [Compound 163] | 0.5 | 3.6 | > 100 | 9800 | – | – | – | – | –
CC(C)C[C@H](NC(=O)OCc1ccccc1)C(=O)N[C@@H](Cc1ccccc1)C(=O)N[C@H](/C=C/C(=O)N1CCc2cccc(Cl)c21)CCC(N)=O [Compound 91] | 56 | 10 | > 320 | 5430 | – | – | – | – | –
CCOC(=O)/C=C/[C@H](CCC(N)=O)NC(=O)[C@H](Cc1ccccc1)NC(=O)[C@H](CC(C)C)NC(=O)SC [Compound 119] | 1.1 | 5 | > 320 | 69800 | – | – | – | – | –
CCOC(=O)/C=C/[C@H](CCC(N)=O)NC(=O)[C@H](Cc1ccccc1)NC(=O)[C@H](CC(C)C)NC(=O)CO [Compound 111] | 29.5 | 5 | > 320 | 2060 | – | – | – | – | –
CCOC(=O)/C=C/[C@H](CCC(N)=O)NC(=O)[C@H](Cc1ccccc1)NC(=O)[C@H](CC(C)C)NC(=O)OCc1ccncc1 [Compound 36] | 5.6 | 15 | > 320 | 12000 | – | – | – | – | –
CCOC(=O)/C=C/C(CCC(N)=O)NC(=O)C(Cc1ccc(Cl)cc1)NC(=O)c1cc2c(OC)cccc2n1C(c1ccccc1)(c1ccccc1)c1ccccc1 [Compound 29, Ethyl-3-[N-(1-Tr-4-Methoxyindole-2-Carbonyl)-L-(4-Cl-Phe)-L-Gln]-E-Propenoate] | 27 | – | 500 | – | – | – | – | – | –
CCOC(=O)/C=C/[C@H](CCC(N)=O)NC(=O)[C@H](Cc1ccccc1)NC(=O)[C@H](CC(C)C)NC(=O)CCO [Compound 115] | 19 | 11 | > 320 | 4480 | – | – | – | – | –
CCOC(=O)/C=C/[C@H](CCC(N)=O)NC(=O)[C@H](Cc1ccccc1)NC(=O)[C@@H](NC(=O)OCc1ccccc1)C(C)(C)C [Compound 151] | 0.32 | > 4.8 | 178 | 39800 | – | – | – | – | –
CC(C)CC(NC(=O)OCc1ccccc1)C(=O)NC(Cc1ccccc1)C(=O)NC(C=CCOc1ccc(C(F)(F)F)cc1)CCC(N)=O (stereo not shown) [Compound 77] | > 320 | – | > 320 | – | – | – | – | – | –
COc1ccc2c(c1)CCN2C(=O)C=CC(CCC(N)=O)NC(=O)C(Cc1ccccc1)NC(=O)C(CC(C)C)NC(=O)OCc1ccccc1 (stereo not shown) [Compound 93] | > 320 | – | > 320 | 3440 | – | – | – | – | –
CCOC(=O)/C=C/[C@H](CCC(N)=O)NC(=O)[C@H](Cc1ccc(F)cc1)NC(=O)[C@@H](NC(=O)SC1CCCC1)C(C)(C)Sc1ccc([N+](=O)[O-])cc1 [Compound 185] | – | – | – | – | – | 0.5 | 600,000 M-1 sec-1 | > 100 | –
CC(C)C[C@H](NC(=O)OCc1ccccc1)C(=O)N[C@@H](Cc1ccccc1)C(=O)N[C@H](/C=C/C(=O)N1CCc2ccc(S(C)(=O)=O)cc21)CCC(N)=O [Compound 97] | – | – | – | – | – | > 320 | 12,900 M-1 sec-1 | – | > 320
CC(C)C[C@H](NC(=O)OCc1ccccc1)C(=O)N[C@@H](Cc1ccccc1)C(=O)N[C@H](/C=C/C(=O)N1CCc2cc(Cl)ccc21)CCC(N)=O [Compound 92] | – | – | – | – | – | 5.6 | 445 M⁻¹ s⁻¹ | – | 56
CCOC(=O)/C=C/[C@H](CCC(N)=O)NC(=O)[C@H](CSC)NC(=O)[C@H](CC(C)C)NC(=O)OCc1ccccc1 [Compound 142] | – | – | – | – | – | 8.9 | 2,929 M-1 sec-1 | > 320 | –
